Laboratory results from patent publication US20230140290A1, “SALICYLAMIDE DERIVATIVES AND RELATED METHODS OF MAKING” (THE BOARD OF REGENTS OF THE UNIVERSITY OF TEXAS SY, priority 2020, published 2023).

Columns and labels:
HAdV5-GFP = experiment: Plaque assay (inhibition of HAdV plaque formation); type: cell-based, HAdV-5; conditions: for Selectivity index (SI): ratio of CC50 to IC50 in plaque assay; for inhibition at 10 µM: read-out: Plaque Assay (%) Inhibition (10 μM); for IC50: read-out: Plaque Assay IC50 (μM), HAdV5-GFP, low MOI, 293β5 cell line
Method: Plaque Assay. […] When cells reached 80-90% confluency, they were infected with HAdV5-GFP (0.06 vp/cell) and rocked for 2 h at 37° C. After the incubation the inoculum was removed, and the cells were washed once with PBS.
Plaque Assay. Compounds were tested using low MOI infections (0.06 vp/cell) and at concentrations of 10 μM and in a dose-response assay ranging from 10 to 0.3 μM in a plaque assay. […] When cells reached 80-90% confluency, they were infected with HAdV5-GFP (0.06 vp/cell) and rocked for 2 h at 37° C. After the incubation the inoculum was removed, and the cells were washed once with PBS. […] The mixture also contained the compounds in concentrations ranging from 10 to 0.3 μM.

A549 cells = experiment: Cytotoxicity assay (AlamarBlue); conditions: read-out: CC50 (μM), cytotoxic concentration 50%; A549 cell line, 48 h
Method: Cytotoxicity Assay. The cytotoxicity of the compounds was analyzed by commercial kit AlamarBlue® (Invitrogen, Ref. DAL1025). A549 cells at a density of 5×10^3 cells per well in 96-well plates were seeded. […] Cells were then incubated at 37° C. for 48 h following the kit protocol. The cytotoxic concentration 50 (CC50) value was obtained using the statistical package GraphPad Prism. This assay was performed in duplicate.

Row | SMILES | Selectivity index (SI) (HAdV5-GFP) | inhibition at 10 µM (HAdV5-GFP) [%] | IC50 (HAdV5-GFP) [µM] | CC50 (A549 cells) [µM]
1 | O=C(Nc1cc([N+](=O)[O-])ccc1F)c1cc(Cl)ccc1O [Compound 12, 5-Chloro-N-(2-fluoro-5-nitrophenyl)-2-hydroxybenzamide] | 26.2 | 100 | 0.31 | 8.1 ± 3.2
2 | O=C(Nc1ccc(F)c(F)c1)c1cc(Cl)ccc1O [Compound 15, 5-Chloro-N-(3,4-difluorophenyl)-2-hydroxybenzamide] | 29.6 | 100 | 0.27 | 8
3 | O=C(Nc1cc(C(F)(F)F)cc(C(F)(F)F)c1)c1cc(Cl)ccc1O [Compound 16, N-(3,5-Bis(trifluoromethyl)phenyl)-5-chloro-2-hydroxybenzamide] | 68.3 | 100 | 0.06 | 4.1
4 | O=C(Nc1cc(F)cc(C(F)(F)F)c1)c1ccccc1O [Compound 18, N-(3-Fluoro-5-(trifluoromethyl)phenyl)-2-hydroxybenzamide] | – | 98.7 ± 1.9 | 1.07 | 16.3
5 | Cc1ccc(O)c(C(=O)Nc2cc(F)cc(C(F)(F)F)c2)c1 [Compound 19, N-(3-Fluoro-5-(trifluoromethyl)phenyl)-2-hydroxy-5-methylbenzamide] | – | 98 ± 2.8 | 0.65 | 15.2
6 | O=C(Nc1cc(F)cc(C(F)(F)F)c1)c1cccc(Cl)c1 [Compound 21, 3-Chloro-N-(3-fluoro-5-(trifluoromethyl)phenyl)benzamide] | 6.9 | 99.3 ± 0.9 | 5.61 ± 0.37 | 38.6 ± 1.7
7 | O=C(NCc1ccc([N+](=O)[O-])cc1Cl)c1cc(Cl)ccc1O [Compound 30, 5-Chloro-N-(2-chloro-4-nitrobenzyl)-2-hydroxybenzamide] | – | 100 | 1.4 ± 0.11 | 51.4 ± 3.7
8 | O=C(NCc1ccc(F)cc1Cl)c1cc(Cl)ccc1O [Compound 31, 5-Chloro-N-(2-chloro-4-fluorobenzyl)-2-hydroxybenzamide] | 12.1 | 97.1 ± 4.1 | 2.56 ± 0.06 | 30.9 ± 10.2
9 | O=C(NCc1ccc(Cl)cc1Cl)c1cc(Cl)ccc1O [Compound 32, 5-Chloro-N-(2,4-dichlorobenzyl)-2-hydroxybenzamide] | – | 99.2 ± 0.4 | 1.73 ± 0.51 | 30.9 ± 13.6
10 | O=C(NCc1cc(F)cc(C(F)(F)F)c1)c1cc(Cl)ccc1O [Compound 35, 5-Chloro-N-(3-fluoro-5-(trifluoromethyl)benzyl)-2-hydroxybenzamide] | 15.1 | 98.1 ± 1.4 | 2.4 ± 0.05 | 36.3 ± 7.9
11 | O=C(NCc1ccc(C(F)(F)F)c(F)c1)c1cc(Cl)ccc1O [Compound 36, 5-Chloro-N-(3-fluoro-4-(trifluoromethyl)benzyl)-2-hydroxybenzamide] | – | 99 ± 1.5 | 1.4 ± 0.02 | 22.3 ± 7.2
12 | O=C(NCc1ccc(C(F)(F)F)cc1F)c1cc(Cl)ccc1O [Compound 37, 5-Chloro-N-(2-fluoro-4-(trifluoromethyl)benzyl)-2-hydroxybenzamide] | – | 98.8 ± 0.8 | 1.32 ± 0.04 | 45.6 ± 7.3
13 | O=C(NCc1ccc(Cl)cc1)c1cc(Cl)ccc1O [Compound 38, 5-Chloro-N-(4-chlorobenzyl)-2-hydroxybenzamide] | 7.6 | 97.4 ± 3.7 | 3.57 ± 1.43 | 27.1 ± 1.1
14 | O=C(NCc1ccc(C(F)(F)F)cc1)c1cc(Cl)ccc1O [Compound 42, 5-Chloro-2-hydroxy-N-(4-(trifluoromethyl)benzyl)benzamide] | 9.2 | 99.6 ± 0.2 | 2.59 ± 0.42 | 23.9 ± 9.2
15 | O=C(NCc1ccc([N+](=O)[O-])cc1)c1cc(Cl)ccc1O [Compound 43, 5-Chloro-2-hydroxy-N-(4-nitrobenzyl)benzamide] | 26.7 | 99.5 ± 0.7 | 6.56 ± 0.47 | 175 ± 43.9
16 | Cc1ccc(CNC(=O)c2cc(Cl)ccc2O)cc1 [Compound 44, 5-Chloro-2-hydroxy-N-(4-methylbenzyl)benzamide] | 10.8 | 96.6 ± 4 | 8.12 ± 2.16 | 87.7 ± 4.7

Row | SMILES | Selectivity index (SI) (HAdV5-GFP) | inhibition at 10 µM (HAdV5-GFP) [%] | IC50 (HAdV5-GFP) [µM] | CC50 (A549 cells) [µM]
17 | C[C@@H](NC(=O)c1cc(Cl)ccc1O)c1ccccc1 [Compound 46, (R)-5-Chloro-2-hydroxy-N-(1-phenylethyl)benzamide] | – | 100 | – | 84.6 ± 20.5
18 | C[C@H](NC(=O)c1cc(Cl)ccc1O)c1ccccc1 [Compound 47, (S)-5-Chloro-2-hydroxy-N-(1-phenylethyl)benzamide] | 78.5 | 100 | 2.54 | 199
19 | C[C@@H](NC(=O)c1cc(Cl)ccc1O)c1ccc(Cl)cc1 [Compound 48, (R)-5-Chloro-N-(1-(4-chlorophenyl)ethyl)-2-hydroxybenzamide] | – | 100 | – | 31.1 ± 3.2
20 | O=C(NCCc1ccc(F)cc1)c1cc(Cl)ccc1O [Compound 52, 5-Chloro-N-(4-fluorophenethyl)-2-hydroxybenzamide] | 39.1 | 98.7 ± 1.8 | 3.94 | 154
21 | O=C(Cc1cc(Cl)ccc1O)Nc1cc(F)cc(C(F)(F)F)c1 [Compound 53, 2-(5-Chloro-2-hydroxyphenyl)-N-(3-fluoro-5-(trifluoromethyl)phenyl)acetamide] | 4.8 | 91 ± 3.6 | 4.92 | 23.7 ± 1.5
22 | O=C(CNC(=O)c1cc(Cl)ccc1O)Nc1ccc([N+](=O)[O-])cc1Cl [Compound 56, 5-Chloro-N-(2-((2-chloro-4-nitrophenyl)amino)-2-oxoethyl)-2-hydroxybenzamide] | 53.2 | 100 | 2.43 | 129
23 | C[C@H](NC(=O)c1cc(Cl)ccc1O)C(=O)Nc1ccc([N+](=O)[O-])cc1Cl [Compound 57, (S)-5-Chloro-N-(1-((2-chloro-4-nitrophenyl)amino)-1-oxopropan-2-yl)-2-hydroxybenzamide] | 26.0 | 97.4 ± 2.7 | 3.85 | 100
24 | O=C(N[C@@H](Cc1ccccc1)C(=O)Nc1ccc([N+](=O)[O-])cc1Cl)c1cc(Cl)ccc1O [Compound 59, (S)-5-chloro-N-(1-((2-chloro-4-nitrophenyl)amino)-1-oxo-3-phenylpropan-2-yl)-2-hydroxybenzamide] | – | 100 | – | 15.2
25 | CC(C)(C)OC(=O)CC[C@H](NC(=O)c1cc(Cl)ccc1O)C(=O)Nc1ccc([N+](=O)[O-])cc1Cl [Compound 64, (S)-tert-Butyl 4-(5-chloro-2-hydroxybenzamido)-5-((2-chloro-4-nitrophenyl)amino)-5-oxopentanoate] | 34.2 | 97.3 ± 0.3 | 0.67 | 22.9
26 | CC(C)[C@H](NC(=O)c1cc(Cl)ccc1O)C(=O)Nc1cc(C(F)(F)F)cc(C(F)(F)F)c1 [Compound 65, (S)—N-(1-((3,5-Bis(trifluoromethyl)phenyl)amino)-3-methyl-1-oxobutan-2-yl)-5-chloro-2-hydroxybenzamide] | 77.4 | 99.5 ± 0.7 | 0.4 | 30.9
27 | CC(C)[C@H](NC(=O)c1cc(Cl)ccc1O)C(=O)Nc1cc(F)cc(C(F)(F)F)c1 [Compound 67, (S)-5-Chloro-N-(1-((3-fluoro-5-(trifluoromethyl)phenyl)amino)-3-methyl-1-oxobutan-2-yl)-2-hydroxybenzamide] | 65.2 | 95.8 ± 5.9 | 0.66 | 43
28 | CC(C)[C@H](NC(=O)c1cc(Cl)ccc1O)C(=O)Nc1ccc(F)c(F)c1 [Compound 68, (S)-5-Chloro-N-(1-((3,4-difluorophenyl)amino)-3-methyl-1-oxobutan-2-yl)-2-hydroxybenzamide] | 32.1 | 98.3 ± 2.4 | 2.96 | 95 ± 18.7
29 | O=C(N[C@@H](Cc1ccccc1)C(=O)Nc1cc(C(F)(F)F)cc(C(F)(F)F)c1)c1cc(Cl)ccc1O [Compound 69, (S)—N-(1-((3,5-Bis(trifluoromethyl)phenyl)amino)-1-oxo-3-phenylpropan-2-yl)-5-chloro-2-hydroxybenzamide] | 44.9 | 99 ± 1.4 | 0.4 | 17.9
30 | CS(=O)(=O)Nc1ccc(Cl)cc1C(=O)NCC(=O)Nc1ccc([N+](=O)[O-])cc1Cl [Compound 72, 5-Chloro-N-(2-((2-chloro-4-nitrophenyl)amino)-2-oxoethyl)-2-(methylsulfonamido)benzamide] | 14.6 | 99.6 ± 5.5 | 9.65 ± 0.01 | 141 ± 13.5
31 | CN1CCN(C(=O)c2cc(Cl)ccc2O)CC1 [Compound 173, (5-Chloro-2-hydroxyphenyl)(4-methylpiperazin-1-yl)methanone] | – | 0 | – | –
